Where a name gives a salt, the structure may show the parent alone. Read-outs that look alike come from different tables or passages of the source.
Key:
[1] = biological target: T1, Recombinant human M3 receptor (Homo sapiens, UniProt P20309); assay: biochemical; format: binding
T1 construct: expressed in transfected cells; host or cells: CHO-K1 cells (membranes)

[2] = test system: Isolated Guinea Pig Trachea; assay: Potency in isolated guinea pig trachea, inhibition of EFS-stimulated contraction; conditions: Cavia porcellus, electrical field stimulation
Protocol: Experiments were carried out at 37° C. in modified Krebs-Henseleit solution, (114 mM NaCl, 15 mM NaHCO3, 1 mM MgSO4, 1.3 mM CaCl2, 4.7 mM KCl, 11.5 mM glucose and 1.2 mM KH2PO4, pH 7.4) gassed with 95% O2/5% CO2. Indomethacin was added to a final concentration of 3 μM
Tracheae were removed from adult male Dunkin Hartley Guinea pigs and dissected free of adherent tissue before being cut open longitudinally in a line opposite the muscle. Individual strips of 2-3 cartilage rings in width were cut and suspended using cotton thread in 10 mL water-jacketed organ baths and attached to a force transducer ensuring that the tissue is located between two platinum electrodes. Responses were recorded via a MP100W/Acknowledge data acquisition system connected to a PC. Tissues were equilibrated for one hour under a resting tone of 1 g and were then subjected to electrical field stimulation at a frequency of 80 Hz with a pulse width of 0.1 ms, a unipolar pulse, triggered every 2 minutes. A “voltage-response” curve was generated for each tissue and a submaximal voltage then applied to every piece of tissue according to its own response to voltage. Tissues were washed with Krebs solution and allowed to stabilize under stimulation prior to addition of test compound. Concentration response curves were obtained by a cumulative addition of test compound in half-log increments. Once the response to each addition had reached a plateau the next addition was made. Percentage inhibition of EFS-stimulated contraction is calculated for each concentration of each compound added and dose response curves constructed using Graphpad Prism software and the IC50 calculated for each compound.

[3] = biological target: T2, human muscarinic receptors (M3) (Homo sapiens, UniProt P20309); assay: Muscarinic receptor radioligand binding assay, [3H]-NMS, filter plate format
T2 construct: purchased
T2 sequence (P20309 whole entry): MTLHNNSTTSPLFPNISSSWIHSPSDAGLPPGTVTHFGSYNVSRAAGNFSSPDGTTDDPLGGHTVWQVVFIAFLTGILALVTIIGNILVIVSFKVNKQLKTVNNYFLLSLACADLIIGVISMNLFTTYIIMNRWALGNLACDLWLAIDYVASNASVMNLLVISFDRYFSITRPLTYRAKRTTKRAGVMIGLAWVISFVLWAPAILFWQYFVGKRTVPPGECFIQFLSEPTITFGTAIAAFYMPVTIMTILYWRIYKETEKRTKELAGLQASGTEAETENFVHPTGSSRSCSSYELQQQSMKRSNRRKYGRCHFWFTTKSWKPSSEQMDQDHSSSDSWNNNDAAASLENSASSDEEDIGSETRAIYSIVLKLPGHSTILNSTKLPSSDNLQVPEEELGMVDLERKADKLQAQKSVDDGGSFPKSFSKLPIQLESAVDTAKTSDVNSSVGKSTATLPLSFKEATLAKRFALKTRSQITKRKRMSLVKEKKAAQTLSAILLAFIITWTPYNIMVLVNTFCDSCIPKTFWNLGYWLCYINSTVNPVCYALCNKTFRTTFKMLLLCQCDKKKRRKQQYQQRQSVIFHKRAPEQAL
Protocol: Radioligand binding studies utilising [^3H]-N-methyl scopolamine ([^3H]-NMS) and commercially available cell membranes expressing the human muscarinic receptors (M2 and M3) were used to assess the affinity of muscarinic antagonists for M2 and M3 receptors. Membranes in TRIS buffer were incubated in 96-well plates with [^3H]-NMS and M3 antagonist at various concentrations for 3 hours. Membranes and bound radioligand were then harvested by filtration and allowed to dry overnight. Scintillation fluid was then added and the bound radioligand counted using a Canberra Packard Topcount scintillation counter

[4] = M3, SPA format assay, read-out: Ki in the SPA format assay
[5] = SPA format, read-out: M3 Ki (SPA format)
[6] = filter plate format, read-out: M3 Ki (Filter plate format)
[7] = M3, filter plate assay, read-out: Ki value in the filter plate assay

T1 sequence (P20309 whole entry): as above

SMILES | Ki [1, 5] | Ki [3, 6] | other results
O[C@](c1ccccc1)(c1ncc(C[N+]23CCC(CC2)[C@@H](OCc2ccccc2)C3)o1)C1CCCC1 [Example 42, (R)-3-benzyloxy-1-[2-((R)-cyclopentyl-hydroxy-phenyl-methyl)-oxazol-5-ylmethyl]-1-azonia-bicyclo[2.2.2]octane; formate] | < 5 nM |  | Ki [1, 4]: 0.09 nM; IC50 [2]: 0.7 nM
OC(c1ccccc1)(c1ccccc1)c1noc(C[N+]23CCC(CC2)[C@@H](Oc2ccc(F)cc2)C3)n1 [Example 95, (R)-3-(4-Fluoro-phenoxy)-1-[3-(hydroxy-diphenyl-methyl)-[1,2,4]oxadiazol-5-ylmethyl]-1-azonia-bicyclo[2.2.2]octane; chloride] | < 5 nM |  | Ki [1, 4]: 0.17 nM; IC50 [2]: 0.6 nM
O[C@](c1ccccc1)(c1ncc(C[N+]23CCC(c4ccccc4)(CC2)CC3)o1)C1CCCCC1 [Example 11, 1-[2-((R)-cyclohexyl-hydroxy-phenyl-methyl)-oxazol-5-ylmethyl]-4-phenyl-1-azonia-bicyclo[2.2.2]octane; formate] | > 20 nM | > 20 nM | 
OC(c1ccccc1)(c1ncc(C[N+]23CCC(CC2)C(Oc2ccccc2)C3)o1)C1CCCCC1 (single isomer, unassigned; enantiomer 2) [Example 4, 1-[2-[(RS)—(Cyclohexyl-hydroxy-phenyl-methyl)]-oxazol-5-ylmethyl]-3-phenoxy-1-azonia-bicyclo[2.2.2]octane bromide, enantiomer 2] |  | < 5 nM | Ki [3, 7]: 2 nM
OC(c1ccccc1)(c1cc(C[N+]23CCC(CC2)[C@@H](Sc2ccccc2)C3)on1)C1CCCCC1 (single isomer, unassigned) [Example 70, 1-[3-(Cyclohexyl-hydroxy-phenyl-methyl)-isoxazol-5-ylmethyl]-3-phenylsulfanyl-1-azonia-bicyclo[2.2.2]octane; chloride] | < 5 nM |  | Ki [1, 4]: 0.65 nM; IC50 [2]: 2.8 nM
OC(c1ccccc1)(c1ncc(C[N+]23CCC(CC2)C(Oc2ccccc2)C3)o1)C1CCCCC1 (single isomer, unassigned; enantiomer 1) [Example 3, 1-[2-[(RS)—(Cyclohexyl-hydroxy-phenyl-methyl)]-oxazol-5-ylmethyl]-3-phenoxy-1-azonia-bicyclo[2.2.2]octane bromide, enantiomer 1] |  | 5 to 20 nM | 
O[C@](c1ccccc1)(c1ncc(C[N+]23CCC(CC2)[C@@H](COc2ccccc2)C3)o1)C1CCCCC1 [Example 25, (R)-1-[2-((R)—Cyclohexyl-hydroxy-phenyl-methyl)-oxazol-5-ylmethyl]-3-phenoxymethyl-1-azonia-bicyclo[2.2.2]octane; bromide] | < 5 nM |  | Ki [1, 4]: 0.13 nM; IC50 [2]: 1.9 nM
O=C(O[C@@H]1C[N+]2(Cc3cnc([C@](O)(c4ccccc4)C4CCCCC4)o3)CCC1CC2)c1ccccc1 [Example 10, (S)-3-benzoyloxy-1-[2-((R)-cyclohexyl-hydroxy-phenyl-methyl)-oxazol-5-ylmethyl]-1-azonia-bicyclo[2.2.2]octane; formate] |  |  | Ki ([1]; M3 Ki (SPA format, SPA format)): 5 to 20 nM; Ki ([3]; M3 Ki (Filter plate format), filter plate format): 5 to 20 nM
OC(c1ccccc1)(c1ccccc1)c1ncc(C[N+]23CCC(CC2)C(Oc2ccccc2)C3)o1 (single isomer, unassigned; enantiomer 2) [Example 2, 1-[2-(Hydroxy-diphenyl-methyl)-oxazol-5-ylmethyl]-3-phenoxy-1-azoniabicyclo[2.2.2]octane bromide, enantiomer 2] | < 5 nM | < 5 nM | Ki [3, 7]: 0.9 nM
OC(c1ccccc1)(c1ccccc1)c1ncc(C[N+]23CCC(CC2)C(Oc2ccccc2)C3)o1 (single isomer, unassigned; enantiomer 1) [Example 1, 1-[2-(Hydroxy-diphenyl-methyl)-oxazol-5-ylmethyl]-3-phenoxy-1-azoniabicyclo[2.2.2]octane bromide, enantiomer 1] | > 20 nM | > 20 nM | 
O[C@](c1ccccc1)(c1ncc(C[N+]23CCC(CC2)[C@@H](OCc2ccccc2)C3)o1)C1CCCCC1 [Example 12, (R)-3-(Benzyloxy)-1-[2-(R)-cyclohexyl-hydroxy-phenyl-methyl)-oxazol-5-ylmethyl]-1-azonia-bicyclo[2.2.2]octane; bromide] | < 5 nM |  | 
O[C@](c1ccccc1)(c1ncc(C[N+]23CCC(CC2)[C@@H](CSc2cccc(F)c2)C3)o1)C1CCCCC1 [Example 108, (R)-1-[2-((R)—Cyclohexyl-hydroxy-phenyl-methyl)-oxazol-5-ylmethyl]-3-(3-fluoro-phenylsulfanylmethyl)-1-azonia-bicyclo[2.2.2]octane; bromide] | < 5 nM |  | 
OC(c1ccccc1)(c1ccccc1)c1noc(C[N+]23CCC(CC2)[C@@H](Sc2ccccc2)C3)n1 [Example 118, (R)-1-[3-(Hydroxy-diphenyl-methyl)-[1,2,4]oxadiazol-5-ylmethyl]-3-phenylsulfanyl-1-azonia-bicyclo[2.2.2]octane; chloride] | < 5 nM |  | 
O[C@](c1ccccc1)(c1ncc(C[N+]23CCC(CC2)[C@@H](OCc2ccc(Cl)c(Cl)c2)C3)o1)C1CCCCC1 [Example 22, (R)-1-[2-((R)-cyclohexyl-hydroxy-phenyl-methyl)-oxazol-5-ylmethyl]-3-(3,4-dichloro-benzyloxy)-1-azonia-bicyclo[2.2.2]octane; formate] | < 5 nM |  | 
O[C@](c1ccccc1)(c1ncc(C[N+]23CCC(CC2)C(COc2ccc(F)cc2)C3)o1)C1CCCCC1 (single isomer, unassigned) [Example 82] | < 5 nM |  | 

— patent US20100056565A1, “Heterocyclic Derivatives as M3 Muscarinic Receptors” (priority 2007, published 2010)
